Where two headings read alike, the source gives them in different places.
Legend:
[1] = unreacted oxycodone + four isomers of Formula IV, 1 mg/ml, 5% acetic acid 100° C.
[2] = Ketal hydrolysis at varying pH, buffers at 37° C.; details: 1 mg/ml; for hydrolysis of the ketal: Table 13b, 37° C.
[3] = type: physicochemical; details: for time to almost complete hydrolysis: 0.1N HCl 37° C., FIG. 10; for % Oxycodone, % IVA-IVD in hydrolysis mixture: total 1 mg/ml; for % Oxycodone, % IVA-IVD in hydrolysis mixture / % Oxycodone, % IVD in hydrolysis mixture / % IVC in hydrolysis mixture: 0.1 N HCl 37° C.; for relative rate of hydrolysis: comparison of stereoisomers; for % Oxycodone, % IVD in hydrolysis mixture: isomer IVD tested separately; for % Oxycodone, % IVD in hydrolysis mixture / % IVC in hydrolysis mixture: 1 mg/ml, normalized; for % IVC in hydrolysis mixture: isomer IVC tested separately
[4] = Hydrolysis in Simulated Gastric Fluid (SGF) at 37° C., LC/MS; details: for Hydrolysis in SGF: hydrolyzed in 6.75 hours; for Oxycodone, Ketal A-D in hydrolysis mixture: oxycodone 2,4-pentanediol ketal isomers + unreacted oxycodone, 2 mg/nil, SGF 37° C.

With `COc1ccc2c3c1O[C@H]1C4(CCC5(O)[C@@H](C2)N(C)CC[C@]315)O[C@H](C)C[C@@H](C)O4` (stereo partly drawn) [IVD, oxycodone 2R,4R-pentanediol ketal] the “% Oxycodone, % IVA-IVD in hydrolysis mixture” value (“% Oxycodone, % IVA-IVD” for short) ([1]; 0 h) was 17.6%, the “% Oxycodone, % IVA-IVD” value ([1]; 0.5 h) was 1.5% and the “% Oxycodone, % IVA-IVD” value ([1]; 1 h) was 0%. For the same compound, the “% Oxycodone, % IVA-IVD” value ([1]; 2 h) was 0%, the “% Oxycodone, % IVA-IVD” value ([1]; 4.35 h) was 0% and the “% Oxycodone, % IVA-IVD” value ([1]; 10 h) was 0%. For the same compound, the “hydrolysis of the ketal” value ([2]; pH 1, 0 h) was 0, the “hydrolysis of the ketal” value ([2]; pH 1, 0.33 h) was 55.2 and the “hydrolysis of the ketal” value ([2]; pH 1, 1 h) was 89.2. For the same compound, the “hydrolysis of the ketal” value ([2]; pH 1, 2 h) was 98, the “hydrolysis of the ketal” value ([2]; pH 1, 4 h) was 100 and the “hydrolysis of the ketal” value ([2]; pH 1.5, 0 h) was 0. For the same compound, the “hydrolysis of the ketal” value ([2]; pH 1.5, 0.33 h) was 14.9, the “hydrolysis of the ketal” value ([2]; pH 1.5, 1 h) was 34.4 and the “hydrolysis of the ketal” value ([2]; pH 1.5, 2 h) was 51.9. For the same compound, the “hydrolysis of the ketal” value ([2]; pH 1.5, 4 h) was 80.4, the “hydrolysis of the ketal” value ([2]; pH 2, 0 h) was 0 and the “hydrolysis of the ketal” value ([2]; pH 2, 0.33 h) was 4.6. For the same compound, the “hydrolysis of the ketal” value ([2]; pH 2, 1 h) was 13.3, the “hydrolysis of the ketal” value ([2]; pH 2, 2 h) was 24.2 and the “hydrolysis of the ketal” value ([2]; pH 2, 4 h) was 40.9. The “hydrolysis of the ketal” value ([2]; pH 2.5, 0 h) was 0, the “hydrolysis of the ketal” value ([2]; pH 2.5, 0.33 h) was 0 and the “hydrolysis of the ketal” value ([2]; pH 2.5, 1 h) was 0. The “hydrolysis of the ketal” value ([2]; pH 2.5, 2 h) was 8.4, the “hydrolysis of the ketal” value ([2]; pH 2.5, 4 h) was 14.7 and the “hydrolysis of the ketal” value ([2]; pH 3, 0 h) was 0. For the same compound, the “hydrolysis of the ketal” value ([2]; pH 3, 0.33 h) was 0, the “hydrolysis of the ketal” value ([2]; pH 3, 1 h) was 0 and the “hydrolysis of the ketal” value ([2]; pH 3, 2 h) was 3.4. For the same compound, the “hydrolysis of the ketal” value ([2]; pH 3, 4 h) was 6.4, the “pH at which hydrolysis of the ketal is fastest” value ([2]; pH buffers 37° C.) was “fastest at pH 1” and the “time to almost complete hydrolysis” value [3] was no more than 2 h. The “% Oxycodone, % IVA-IVD” value ([3]; 0 h) was 17.3%, the “% Oxycodone, % IVA-IVD” value ([3]; 0.583 h) was 8.6% and the “% Oxycodone, % IVA-IVD” value ([3]; 1.167 h) was 4.8%. The “% Oxycodone, % IVA-IVD” value ([3]; 1.75 h) was 2.6%, the “% Oxycodone, % IVA-IVD” value ([3]; 2.33 h) was 1.5% and the “% Oxycodone, % IVA-IVD” value ([3]; 2.92 h) was 0.7%. The “% Oxycodone, % IVA-IVD” value ([3]; 4 h) was 0%, the “% Oxycodone, % IVA-IVD” value ([3]; 6.5 h) was 0% and the “% Oxycodone, % IVA-IVD” value ([3]; 9.75 h) was 0%. The “% Oxycodone, % IVA-IVD” value ([3]; 13.75 h) was 0%, the “% Oxycodone, % IVA-IVD” value ([3]; 25 h) was 0% and the “relative rate of hydrolysis” value [3] was “hydrolyzes relatively quickly”. For the same compound, the “% Oxycodone, % IVD in hydrolysis mixture” value ([3]; 0 h) was 99.8%, the “% Oxycodone, % IVD in hydrolysis mixture” value ([3]; 0.17 h) was 70% and the “% Oxycodone, % IVD in hydrolysis mixture” value ([3]; 0.33 h) was 44.8%. The “% Oxycodone, % IVD in hydrolysis mixture” value ([3]; 1 h) was 10.8% and the “% Oxycodone, % IVD in hydrolysis mixture” value ([3]; 2 h) was 2%.

For `COc1ccc2c3c1OC1C4(CCC5(O)[C@@H](C2)N(C)CC[C@]315)OCC(C)O4` (some centres unmarked), the “Hydrolysis in SGF” value [4] was “Trace hydrolysis in 6.75 hours”.

For `COc1ccc2c3c1OC1C4(CCC5[C@@H](C2)N(C)CC[C@@]351)OCCO4` (some centres unmarked), the “Hydrolysis in SGF” value [4] was ~2% hydrolyzed in 6.75 hours.

For `COc1ccc2c3c1OC1C4(CCC5(O)C(C2)N(C)CCC315)OC(C)CC(C)O4` (stereo not drawn) [IVB, oxycodone 2S,4R-pentanediol ketal], the “Oxycodone, Ketal A-D in hydrolysis mixture” value (from here on “Oxycodone, Ketal A-D”) ([4]; 0 h) was 10.3, the “Oxycodone, Ketal A-D” value ([4]; 0.58 h) was 9.8 and the “Oxycodone, Ketal A-D” value ([4]; 1.25 h) was 10.4. The “Oxycodone, Ketal A-D” value ([4]; 2 h) was 9.7, the “Oxycodone, Ketal A-D” value ([4]; 3 h) was 10.2 and the “Oxycodone, Ketal A-D” value ([4]; 4 h) was 9.1.

With `COc1ccc2c3c1O[C@H]1C4(CCC5(O)[C@@H](C2)N(C)CC[C@]315)O[C@@H](C)C[C@H](C)O4` (stereo partly drawn) [IVC, oxycodone 2S,4S-pentanediol ketal] the “% Oxycodone, % IVA-IVD” value ([1]; 0 h) was 36.2%, the “% Oxycodone, % IVA-IVD” value ([1]; 0.5 h) was 12.8% and the “% Oxycodone, % IVA-IVD” value ([1]; 1 h) was 5.9%. For the same compound, the “% Oxycodone, % IVA-IVD” value ([1]; 2 h) was 0.9%, the “% Oxycodone, % IVA-IVD” value ([1]; 4.35 h) was 0% and the “% Oxycodone, % IVA-IVD” value ([1]; 10 h) was 0%. For the same compound, the “time to almost complete hydrolysis” value [3] was no more than 8 h, the “% Oxycodone, % IVA-IVD” value ([3]; 0 h) was 35.8% and the “% Oxycodone, % IVA-IVD” value ([3]; 0.583 h) was 29.2%. For the same compound, the “% Oxycodone, % IVA-IVD” value ([3]; 1.167 h) was 26%, the “% Oxycodone, % IVA-IVD” value ([3]; 1.75 h) was 20.6% and the “% Oxycodone, % IVA-IVD” value ([3]; 2.33 h) was 17.7%. The “% Oxycodone, % IVA-IVD” value ([3]; 2.92 h) was 15%, the “% Oxycodone, % IVA-IVD” value ([3]; 4 h) was 10.3% and the “% Oxycodone, % IVA-IVD” value ([3]; 6.5 h) was 4%. For the same compound, the “% Oxycodone, % IVA-IVD” value ([3]; 9.75 h) was 1.5%, the “% Oxycodone, % IVA-IVD” value ([3]; 13.75 h) was 0% and the “% Oxycodone, % IVA-IVD” value ([3]; 25 h) was 0%. For the same compound, the “relative rate of hydrolysis” value [3] was “hydrolyzes relatively slowly”, the “% IVC in hydrolysis mixture” value ([3]; 0 h) was 98.7% and the “% IVC in hydrolysis mixture” value ([3]; 0.75 h) was 71.5%. The “% IVC in hydrolysis mixture” value ([3]; 1.5 h) was 54%, the “% IVC in hydrolysis mixture” value ([3]; 3.33 h) was 18.8% and the “% IVC in hydrolysis mixture” value ([3]; 6 h) was 4.7%. For the same compound, the “% IVC in hydrolysis mixture” value ([3]; 8 h) was 2.1%.
